Measurements as given in patent US12208088B2 (Genentech, Inc., priority 2018, dated 2025).

The compounds below were run against HPK1 (Homo sapiens (Human), UniProt Q92918) (assay: HPK1 Lantha binding assay ("Lanth")). Settings: binding assays; Morrison Ki fit.
Sequence of HPK1 (Q92918 1-346 limits assumed): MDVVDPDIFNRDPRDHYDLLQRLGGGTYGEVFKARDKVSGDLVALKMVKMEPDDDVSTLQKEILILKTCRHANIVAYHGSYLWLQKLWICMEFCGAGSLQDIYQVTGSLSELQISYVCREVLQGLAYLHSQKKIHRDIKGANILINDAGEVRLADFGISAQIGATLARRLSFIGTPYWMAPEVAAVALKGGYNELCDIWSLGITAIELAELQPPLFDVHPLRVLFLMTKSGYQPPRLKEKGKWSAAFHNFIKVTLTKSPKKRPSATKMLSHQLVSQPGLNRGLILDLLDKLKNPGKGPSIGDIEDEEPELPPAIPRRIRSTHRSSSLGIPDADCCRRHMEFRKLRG
Summary of the method: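 Ki values are from Morrison-equation fitting of 665/615 nm TR-FRET signals, taking enzyme level, tracer level and tracer Kd into account. The assay mix held HPK1 (2 nM), Eu-anti-GST antibody (2 nM) and Tracer222 (15 nM). Incubations were two 1 h steps at 23 °C, on 5-fold serial compound dilutions.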
Compound `O=C1NCCCC1c1cccc(-c2cnc3c(c2Cl)C2(CC2)CN3)c1` (centres unmarked) [Compound 58, 3-(3-(4′-Chloro-1′,2′-dihydrospiro[cyclopropane-1,3′-pyrrolo[2,3-b]pyridin]-5′-yl)phenyl)piperidin-2-one] has a Ki of 43.7 nM. `O=C1NCCCN1c1cccc(-c2cnc3c(c2Cl)C2(CC2)CN3)c1` [Compound 59, 1-(3-(4′-Chloro-1′,2′-dihydrospiro[cyclopropane-1,3′-pyrrolo[2,3-b]pyridin]-5′-yl)phenyl)tetrahydropyrimidin-2(1H)-one] showed a Ki of 14.2 nM. `O=C1CCCCN1c1cccc(-c2cnc3c(c2Cl)C2(CC2)CN3)c1` [Compound 60, 1-(3-(4′-Chloro-1′,2′-dihydrospiro[cyclopropane-1,3′-pyrrolo[2,3-b]pyridin]-5′-yl)phenyl)piperidin-2-one] was tested, and the Ki was 16 nM. `Nc1cc(-c2cnc3c(c2Cl)C2(CCC(O)C2)CN3)cc(-c2ncccc2CO)c1` (centres unmarked) [Compound 61, 5′-(3-Amino-5-(3-(hydroxymethyl)pyridin-2-yl)phenyl)-4′-chloro-1′,2′-dihydrospiro[cyclopentane-1,3′-pyrrolo[2,3-b]pyridin]-3-ol] gave a Ki of 12.8 nM. `NS(=O)(=O)c1cccc(-c2cnc3c(c2)C2(CC2)CN3)c1` [Compound 62, 3-(1′,2′-Dihydrospiro[cyclopropane-1,3′-pyrrolo[2,3-b]pyridin]-5′-yl)benzenesulfonamide] was tested, and the Ki was 66.4 nM. Work on `CS(=O)(=O)c1cccc(-c2cnc3c(c2)C2(CC2)CN3)c1` [Compound 63, 5′-(3-(Methylsulfonyl)phenyl)-1′,2′-dihydrospiro[cyclopropane-1,3′-pyrrolo[2,3-b]pyridine]] yielded a Ki of 84.9 nM. In the case of `CC(=O)Nc1ccc(-c2cnc3c(c2)C2(CC2)CN3)cc1C(F)(F)F` [Compound 64, N-(4-(1′,2′-Dihydrospiro[cyclopropane-1,3′-pyrrolo[2,3-b]pyridin]-5′-yl)-2-(trifluoromethyl)phenyl)acetamide], the Ki is reported as 89.1 nM. In the case of `NS(=O)(=O)c1ccc(-c2cnc3c(c2)C2(CC2)CN3)cc1` [Compound 65, 4-(1′,2′-Dihydrospiro[cyclopropane-1,3′-pyrrolo[2,3-b]pyridin]-5′-yl)benzenesulfonamide], the Ki is reported as 135 nM. Compound `CN(C)C(=O)c1c(N)ccc(-c2cnc3c(c2)C2(CCC2)CN3)c1F` [Compound 66, 6-Amino-3-(1′,2′-dihydrospiro[cyclobutane-1,3′-pyrrolo[2,3-b]pyridin]-5′-yl)-2-fluoro-N,N-dimethylbenzamide] has a Ki of 53.1 nM. `O=C1NCCCN1c1cccc(-c2cnc3c(c2)C2(CC2)CN3)c1` [Compound 67, 1-(3-(1′,2′-Dihydrospiro[cyclopropane-1,3′-pyrrolo[2,3-b]pyridin]-5′-yl)phenyl)tetrahydropyrimidin-2(1H)-one] was tested, and the Ki was 27.5 nM. Work on `Cn1cccc(-c2cccc(-c3cnc4c(c3Cl)[C@]3(CC[C@H](O)C3)CN4)c2)c1=O` [Compound 68c, 3-(3-((1R,3S)-4′-chloro-3-hydroxy-1′,2′-dihydrospiro[cyclopentane-1,3′-pyrrolo[2,3-b]pyridin]-5′-yl)phenyl)-1-methylpyridin-2(1H)-one] yielded a Ki of 5.4 nM. Compound `C[C@@H]1CNC(=O)N1c1cccc(-c2cnc3c(c2Cl)C2(CC2)CN3)c1` [Compound 69a, (R)-1-(3-(4′-Chloro-1′,2′-dihydrospiro[cyclopropane-1,3′-pyrrolo[2,3-b]pyridin]-5′-yl)phenyl)-5-methylimidazolidin-2-one] has a Ki of 35.6 nM. For `C[C@H]1CNC(=O)N1c1cccc(-c2cnc3c(c2Cl)C2(CC2)CN3)c1` [Compound 69b, (S)-1-(3-(4′-Chloro-1′,2′-dihydrospiro[cyclopropane-1,3′-pyrrolo[2,3-b]pyridin]-5′-yl)phenyl)-5-methylimidazolidin-2-one], the Ki was 16 nM. `O=C1NCCCN1c1cccc(-c2cnc3c(c2)C2(CC2)CN3)n1` [Compound 70, 1-(6-(1′,2′-Dihydrospiro[cyclopropane-1,3′-pyrrolo[2,3-b]pyridin]-5′-yl)pyridin-2-yl)tetrahydropyrimidin-2(1H)-one] gave a Ki of 102 nM. Work on `O=C1NCCN1c1cccc(-c2cnc3c(c2)C2(CC2)CN3)n1` [Compound 71, 1-(6-(1′,2′-Dihydrospiro[cyclopropane-1,3′-pyrrolo[2,3-b]pyridin]-5′-yl)pyridin-2-yl)imidazolidin-2-one] yielded a Ki of 115 nM. Work on `c1cc(-c2cnc3c(c2)C2(CC2)CN3)cc(-c2nnn3c2CNCC3)c1` [Compound 72, 5′-(3-(4,5,6,7-Tetrahydro-[1,2,3]triazolo[1,5-a]pyrazin-3-yl)phenyl)-1′,2′-dihydrospiro[cyclopropane-1,3′-pyrrolo[2,3-b]pyridine]] yielded a Ki of 279 nM. `O=C1NCCC1c1cccc(-c2cnc3c(c2Cl)C2(CC2)CN3)c1` (centres unmarked) [Compound 73] gave a Ki of 26.1 nM. For `N#Cc1cc2c(-c3cnc4c(c3)C3(CC3)CN4)c[nH]c2cc1F` [Compound 74], the Ki was 31 nM. In the case of `CN(C)C(=O)c1c(N)ccc(-c2cnc3c(c2Cl)C2(CCC(N(C)CC(N)=O)C2)CN3)c1F` (centres unmarked) [Compound 75, 6-Amino-3-(3-((2-amino-2-oxoethyl)(methyl)amino)-4′-chloro-1′,2′-dihydrospiro[cyclopentane-1,3′-pyrrolo[2,3-b]pyridin]-5′-yl)-2-fluoro-N,N-dimethylbenzamide], the Ki is reported as 251 nM. `CN(C)C(=O)c1c(N)ccc(-c2cnc3c(c2Cl)C2(CCC(NCC(N)=O)C2)CN3)c1F` (centres unmarked) [Compound 76, 6-Amino-3-(3-((2-amino-2-oxoethyl)amino)-4′-chloro-1′,2′-dihydrospiro[cyclopentane-1,3′-pyrrolo[2,3-b]pyridin]-5′-yl)-2-fluoro-N,N-dimethylbenzamide] gave a Ki of 490 nM. Work on `CN(C)C(=O)c1c(N)ccc(-c2cnc3c(c2)[C@]2(CN3)C[C@H](O)C2)c1F` [Compound 77a, 6-Amino-2-fluoro-3-((1r,3r)-3-hydroxy-1′,2′-dihydrospiro[cyclobutane-1,3′-pyrrolo[2,3-b]pyridin]-5′-yl)-N,N-dimethylbenzamide] yielded a Ki of 160 nM. `CN(C)C(=O)c1c(N)ccc(-c2cnc3c(c2)[C@]2(CN3)C[C@@H](O)C2)c1F` [Compound 77b, 6-Amino-2-fluoro-3-((1s,3s)-3-hydroxy-1′,2′-dihydrospiro[cyclobutane-1,3′-pyrrolo[2,3-b]pyridin]-5′-yl)-N,N-dimethylbenzamide] was tested, and the Ki was 217 nM. `CN(C)C(=O)c1c(N)ccc(-c2cnc3c(c2)[C@]2(CN3)C[C@](C)(O)C2)c1F` [Compound 78a, 6-Amino-2-fluoro-3-((1r,3r)-3-hydroxy-3-methyl-1′,2′-dihydrospiro[cyclobutane-1,3′-pyrrolo[2,3-b]pyridin]-5′-yl)-N,N-dimethylbenzamide] was tested, and the Ki was 927 nM. `CN(C)C(=O)c1c(N)ccc(-c2cnc3c(c2)[C@]2(CN3)C[C@@](C)(O)C2)c1F` [Compound 78b, 6-Amino-2-fluoro-3-((1s,3s)-3-hydroxy-3-methyl-1′,2′-dihydrospiro[cyclobutane-1,3′-pyrrolo[2,3-b]pyridin]-5′-yl)-N,N-dimethylbenzamide] was tested, and the Ki was 165 nM. `CN(C)C(=O)c1c(N)ccc(-c2cnc3c(c2)C2(CNC(=O)C2)CN3)c1F` (centres unmarked) [Compound 79, 6-Amino-2-fluoro-N,N-dimethyl-3-(5-oxo-1′,2′-dihydrospiro[pyrrolidine-3,3′-pyrrolo[2,3-b]pyridin]-5′-yl)benzamide] showed a Ki of 659 nM. Compound `CO[C@H]1C[C@]2(CNc3ncc(-c4ccc(N)c(C(=O)N(C)C)c4F)c(Cl)c32)C1` [Compound 80a, 6-Amino-3-((1r,3r)-4′-chloro-3-methoxy-1′,2′-dihydrospiro[cyclobutane-1,3′-pyrrolo[2,3-b]pyridin]-5′-yl)-2-fluoro-N,N-dimethylbenzamide] has a Ki of 97.6 nM. In the case of `CO[C@H]1C[C@@]2(CNc3ncc(-c4ccc(N)c(C(=O)N(C)C)c4F)c(Cl)c32)C1` [Compound 80b, 6-Amino-3-((1s,3s)-4′-chloro-3-methoxy-1′,2′-dihydrospiro[cyclobutane-1,3′-pyrrolo[2,3-b]pyridin]-5′-yl)-2-fluoro-N,N-dimethylbenzamide], the Ki is reported as 129 nM. `CC(=O)NC1CCC2(CNc3ncc(-c4ccc(N)c(C(=O)N(C)C)c4F)c(Cl)c32)C1` (centres unmarked) [Compound 83, 3-(3-Acetamido-4′-chloro-1′,2′-dihydrospiro[cyclopentane-1,3′-pyrrolo[2,3-b]pyridin]-5′-yl)-6-amino-2-fluoro-N,N-dimethylbenzamide] was tested, and the Ki was 208 nM. Work on `CN(C)C(=O)c1c(N)ccc(-c2cnc3c(c2Cl)[C@]2(CC[C@H](n4cncn4)C2)CN3)c1F` [Compound 85a, 6-Amino-3-((1R,3S)-4′-chloro-3-(1H-1,2,4-triazol-1-yl)-1′,2′-dihydrospiro[cyclopentane-1,3′-pyrrolo[2,3-b]pyridin]-5′-yl)-2-fluoro-N,N-dimethylbenzamide] yielded a Ki of 48.1 nM. `CN(C)C(=O)c1c(N)ccc(-c2cnc3c(c2Cl)[C@]2(CC[C@@H](n4cncn4)C2)CN3)c1F` [Compound 85c, 6-Amino-3-((1R,3R)-4′-chloro-3-(1H-1,2,4-triazol-1-yl)-1′,2′-dihydrospiro[cyclopentane-1,3′-pyrrolo[2,3-b]pyridin]-5′-yl)-2-fluoro-N,N-dimethylbenzamide] gave a Ki of 149 nM. In the case of `C[C@@H]1C[C@@]12CNc1ncc(-c3ccc(N)c(C(=O)N(C)C)c3F)cc12` [Compound 86c, 6-Amino-2-fluoro-N,N-dimethyl-3-((1R,2R)-2-methyl-1′,2′-dihydrospiro[cyclopropane-1,3′-pyrrolo[2,3-b]pyridin]-5′-yl)benzamide], the Ki is reported as 3.25 nM. With `CN(C)C(=O)c1c(N)ccc(-c2cnc3c(c2)[C@]2(CN3)C[C@@](O)(C(F)(F)F)C2)c1F` [Compound 87a] the Ki was 358 nM. `CN(C)C(=O)c1c(N)ccc(-c2cnc3c(c2)[C@]2(CN3)C[C@@H](n3cncn3)C2)c1F` [Compound 88a] was tested, and the Ki was 126 nM. In the case of `CN(C)C(=O)c1c(N)ccc(-c2cnc3c(c2Cl)[C@]2(CC[C@@H](n4nccn4)C2)CN3)c1F` [Compound 89c, 6-Amino-3-((1R,3R)-4′-chloro-3-(2H-1,2,3-triazol-2-yl)-1′,2′-dihydrospiro[cyclopentane-1,3′-pyrrolo[2,3-b]pyridin]-5′-yl)-2-fluoro-N,N-dimethylbenzamide], the Ki is reported as 23.1 nM. `CN(C)C(=O)c1c(N)ccc(-c2cnc3c(c2Cl)[C@]2(CC[C@H](n4ccnn4)C2)CN3)c1F` [Compound 90a] was tested, and the Ki was 51.8 nM.
